Patent publication US20040224884A1, “Methods of screening for apoptosis-controlling agents for bone anabolic therapies and uses thereof” (priority 1998, published 2004)
Several values for one entry are separate records, joined by “and”; a condition that tells them apart may be missing. Equal values may be shown once.

Assays:
[1] = target: T1, murine estrogen receptor-beta (mERβ) (Mus musculus, UniProt O08537); assay: Etoposide-induced apoptosis in HeLa cells stably transfected with mERβ; assay type: cell-based, human; conditions: 10^−8 M, 1 h; etoposide 5×10^−5 M, 6 hour
T1 construct: expressed in transfected cells
T1 sequence (O08537 whole entry): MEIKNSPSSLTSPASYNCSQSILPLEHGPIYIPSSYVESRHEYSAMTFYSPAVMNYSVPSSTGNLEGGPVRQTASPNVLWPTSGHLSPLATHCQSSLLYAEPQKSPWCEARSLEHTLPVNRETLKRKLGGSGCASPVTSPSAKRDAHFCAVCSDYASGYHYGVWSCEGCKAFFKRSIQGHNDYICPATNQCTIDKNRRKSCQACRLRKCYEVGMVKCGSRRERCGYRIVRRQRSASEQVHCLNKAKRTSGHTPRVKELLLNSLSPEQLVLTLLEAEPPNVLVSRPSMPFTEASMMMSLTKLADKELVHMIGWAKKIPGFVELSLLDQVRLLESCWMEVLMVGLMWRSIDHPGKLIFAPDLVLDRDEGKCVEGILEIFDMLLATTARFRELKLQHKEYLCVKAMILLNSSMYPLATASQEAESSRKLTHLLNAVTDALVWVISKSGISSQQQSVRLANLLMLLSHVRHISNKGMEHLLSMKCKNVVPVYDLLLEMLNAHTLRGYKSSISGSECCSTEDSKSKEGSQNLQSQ
Text: CMV promoter alone and CMV promoter-driven cDNA for mERα or mErβ were stably transfected into HeLa cells. […] Cells were trypsinized, pelleted and trypan blue positive cells enumerated.
In this experiment, instead of calvaria cells, human HeLa cells which contain undetectable, if any, estrogen receptor were used. HeLa cells were stably transfected with either a CMV promoter-driven cDNA for the murine estrogen receptor-alpha (mERα) or a CMV promoter-driven cDNA for the murine estrogen receptor-beta (mERβ). […] Cells were trypsinized, pelleted and trypan blue positive cells were enumerated.

[2] = test system: extracellular signal regulated kinases (ERKs) 1 and 2; assay: Western blot of phosphorylated ERK1/2 in MLO-Y4 cells; assay type: cell-based, murine
Method: (§1) MLO-Y4 osteocytic cells were incubated for 25 minutes in serum -free medium. […] Cell lysates were prepared and proteins were separated by electrophoresis in polyacrylamide gels and transferred to PVDF membranes. Western blotting was performed using a specific antibody recognizing phosphorylated ERKs 1 and 2, followed by reblotting with an antibody recognizing total ERKs. Blots were developed by enhanced chemiluminescence.
as §1, with “MLO-Y4” for “MLO-Y4 osteocytic”, “serum-free medium in the presence or absence of 50 μM PD98059.” for “serum -free medium.”
as §1, with “In this experiment, MLO-Y4” for “MLO-Y4”, “serum-free” for “serum -free”, “extracellular signal regulated kinases” for “ERKs”, “extracellular signal regulated kinases.” for “ERKs.”, “chemiluminescence. […] This effect is too rapid to be accounted for by the classical mechanism of estrogen action.” for “chemiluminescence.”
as §1, with “In this experiment, MLO-Y4” for “MLO-Y4”, “serum-free medium in the presence or absence of 50 μM PD98059.” for “serum -free medium.”, “extracellular signal regulated kinases” for “ERKs”, “extracellular signal regulated kinases.” for “ERKs.”

[3] = BMD by dual-energy x-ray absorptiometry in intact or ovariectomized mice; assay type: in vivo; set-up: global 1 BMD / hindquart BMD (1) / spine 1 BMD / global 2 BMD / hindquart BMD (2) / spine 2 BMD / global 1 BMD (mean) / hindquart BMD (1) (mean) / spine 1 BMD (mean) / global 2 BMD (mean) / hindquart BMD (2) (mean) / spine 2 BMD (mean): unit not given here; conditions: for Global BMD: 2000 ng/g body weight for 28 days; for global 2 BMD / hindquart BMD (2) / spine 2 BMD / global 2 BMD (mean) / hindquart BMD (2) (mean) / spine 2 BMD (mean): 2000 ng/g for 28 days, end of experiment; for global 2 BMD / hindquart BMD (2) / spine 2 BMD / global 1 BMD / hindquart BMD (1) / spine 1 BMD: individual animals; for global 1 BMD / hindquart BMD (1) / spine 1 BMD / global 1 BMD (mean) / hindquart BMD (1) (mean) / spine 1 BMD (mean): 2000 ng/g group, day 0 (initial)
Method: In a representative experiment of this sort, six 4-5 month old female mice per group are screened twice for BMD in a four week period immediately prior to the initiation of the experiment to establish that peak adult bone mass has been attained. A subset of mice are then ovariectomized. Intact and ovariectomized mice are treated with vehicle, or 20, 200 or 2000 ng/g body weight estratriene-3-ol or another test compound.
Stock solutions of the test agents (10,000 μg/ml) are maintained in approximately 2.0 ml of 95% ethanol. These stocks are diluted in 95% ethanol to make 1000 μg/ml and 100 μg/ml concentrations. The concentration of the stocks is checked spectrophotometrically. For each animal injection, the test agent is diluted in sesame oil and sonicated. Test agents are administered for 28 days by subcutaneous injections on alternative days. The mice are weighed weekly and serum samples are collected at appropriate times for analysis of bone biochemical markers, such as osteocalcin or collagen cross-links. Tetracycline labeling is performed by administration of the antibiotic (30 mg/kg) at 2 and 8 days prior to the end of each experiment.
During the 28 day experiment, BMD is determined in live animals at day 0, 14 and 28. Following animal sacrifice at the end of the experiment, the vertebral bones L1-L4 are collected for fixation and embedded undecalcified in methyimethacrylate plastic for the determination of the prevalence of osteoblast and osteocyte apoptosis and other static and dynamic histomorphometric measurements. L5 vertebrae are isolated for determining anti-fracture efficacy of the compounds by assaying compression, 3 point bending and other appropriate biomechanical tests. Results confirming the expected efficacy of these compounds show decreased prevalence of osteoblast and/or osteocyte apoptosis, and/or positive BMD changes, and/or increased cancellous bone area, and/or increased rate of bone formation, and/or increased biomechanical strength.
As an example, the results of an experiment whereby 2000 ng/g body weight of estratriene-3-ol was administered for 28 days to estrogen-replete (intact) or estrogen-deficient (ovariectomized) mice are shown in Table 2.
Each row represents values for individual animals. The first three sets of numbers represent the initial BMD measurements (by dual-energy x-ray absorptiometry with Hologic QDR2000 plus, using customized software) at day 0 and the last three BMD measurements at the end of the experiment. Global=BMD of the entire skeleton minus the head and tail; hindquarters=the mean BMD of both hindlimbs; spine=the BMD of cervical, thoracic and lumbar spine.

With `C[C@@]12CCC[C@H]1[C@@H]1CCc3cc(O)ccc3[C@H]1CC2` [estratriene-3-ol] the “inhibition of etoposide-induced apoptosis in HeLa cells transfected with estrogen receptor β” value [1] was “potently inhibited”, the “activation (phosphorylation) of ERKs” value ([2]; 10^−8 M, 5, 15 or 30 minutes) was “activated” and the “ability to activate ERKs in the presence of PD98059” value ([2]; 10^−8 M, 5 minutes, 50 μM PD98059) was “abrogated”. The “Global BMD” value ([3]; Ovx mice, p < 0.00001) was 0.0555 ± 0.0011 g/cm2, the “global 2 BMD” value ([3]; Ovx mice) was 0.0565 and 0.0557 and 0.0548 and 0.0545 and 0.0564 and 0.0568 and 0.0550 and 0.0539 and the “hindquart BMD (2)” value ([3]; Ovx mice) was 0.0602 and 0.0632 and 0.0599 (2×) and 0.0624 and 0.0598 and 0.0647 and 0.0630. For the same compound, the “spine 2 BMD” value ([3]; Ovx mice) was 0.0608 and 0.0585 and 0.0584 and 0.0598 and 0.0610 and 0.0625 and 0.0578 and 0.0605, the “global 2 BMD (mean)” value ([3]; Ovx mice) was 0.0555 and the “hindquart BMD (2) (mean)” value ([3]; Ovx mice) was 0.0618. The “spine 2 BMD (mean)” value ([3]; Ovx mice) was 0.0599, the “global 1 BMD” value ([3]; Ovx mice) was 0.0505 and 0.0542 and 0.0496 and 0.0540 and 0.0526 and 0.0569 and 0.0565 and 0.0528 and the “hindquart BMD (1)” value ([3]; Ovx mice) was 0.0527 and 0.0588 and 0.0504 and 0.0596 and 0.0547 and 0.0604 and 0.0591 and 0.0582. The “spine 1 BMD” value ([3]; Ovx mice) was 0.0547 and 0.0581 and 0.0542 and 0.0586 and 0.0580 and 0.0628 and 0.0603 and 0.0568, the “global 1 BMD (mean)” value ([3]; Ovx mice) was 0.0534 and the “hindquart BMD (1) (mean)” value ([3]; Ovx mice) was 0.0573. For the same compound, the “spine 1 BMD (mean)” value ([3]; Ovx mice) was 0.0579, the “Global BMD” value ([3]; intact mice, p < 0.002) was 0.0554 ± 0.0015 g/cm2 and the “global 2 BMD” value ([3]; intact mice) was 0.0550 and 0.0543 and 0.0541 and 0.0568 (2×) and 0.0537 and 0.0574. For the same compound, the “hindquart BMD (2)” value ([3]; intact mice) was 0.0585 and 0.0603 and 0.0619 and 0.0629 and 0.0640 and 0.0554 and 0.0605, the “spine 2 BMD” value ([3]; intact mice) was 0.0602 and 0.0604 and 0.0601 and 0.0613 and 0.0620 and 0.0588 and 0.0632 and the “global 2 BMD (mean)” value ([3]; intact mice) was 0.0554. For the same compound, the “hindquart BMD (2) (mean)” value ([3]; intact mice) was 0.0605, the “spine 2 BMD (mean)” value ([3]; intact mice) was 0.0609 and the “global 1 BMD” value ([3]; intact mice) was 0.0486 and 0.0511 and 0.0543 and 0.0537 and 0.0533 and 0.0521 and 0.0560. For the same compound, the “hindquart BMD (1)” value ([3]; intact mice) was 0.0509 and 0.0565 and 0.0605 and 0.0577 and 0.0546 and 0.0544 and 0.0587, the “spine 1 BMD” value ([3]; intact mice) was 0.0511 and 0.0560 and 0.0593 and 0.0584 and 0.0571 and 0.0555 and 0.0623 and the “global 1 BMD (mean)” value ([3]; intact mice) was 0.0527. For the same compound, the “hindquart BMD (1) (mean)” value ([3]; intact mice) was 0.0562 and the “spine 1 BMD (mean)” value ([3]; intact mice) was 0.0571.
